Earlier results as cited in patent US20190250088A1, “Methods and Apparatus for Predicting and Confirming Drug-Induced Thrombocytopenia Through Particle Detection with Dynamic Light Scattering” (LightIntegra Technology Inc., priority 2018, published 2019).

Conditions: patients recently exposed to heparin; background statement

Substance | HIT occurs in patients receiving the drug (incidence of heparin-induced thrombocytopenia)
low molecular weight heparin [low molecular weight heparin (LMWH)] | < 1%
unfractionated heparin [unfractionated heparin (UFH)] | up to 5%
